# Assay results: PMC6696373 (Molecules, 2019)
# Entries after “also recorded” stand apart in the source; their conditions may differ. Where no end group is shown, it is not given here.
# How the values were obtained:
# Caco-2 cell monolayers [1] = conditions: cited from earlier work
# Description: To elucidate the transepithelial transport pathway of WGAPSL, some inhibitors, such as cytochalasin D, wortmannin, sodium azide, and Gly-Pro, were added to Caco-2 cell monolayers (Figure 4).
# Caco-2 cell monolayers [2] = experiment: Transepithelial transport across Caco-2 cell monolayers; assay type: in vitro ADME, human; conditions: concluded from the efflux ratio in Caco-2 monolayers
# Description: Caco-2 cells were obtained from China Infrastructure of Cell Line Resource (Beijing, China) and were cultured based on the method of Zhang et al.. Cells were cultured in MEM containing 10% fetal bovine serum, 1 mM nonessential amino acid solution, 1% penicillin-streptomycin, and 1% HEPES buffer. Caco-2 cells were seeded at 5 × 10^5 cells/mL in 25 cm^2 tissue culture flasks, and incubated at 37 °C in 5% CO2 with 95% humidity. The passage number of the cells used in the study was between 30 and 40. The medium in cell cultures were replaced every two days and detached from 70–80% confluency using 0.05% trypsin and 0.02% Ethylene Diamine Tetraacetic Acid (EDTA) solution. For the transport experiments, Caco-2 cells were seeded into a collagen-coated transwell plate (6.5 mm diameter, 0.4 μm pore size Corning Costar) at a density of 1 × 10^5 cells/well. […]
# The bilateral transport experiments also assessed transport from the BL to AP side. […]
# The Papp values were calculated as follows (Equation (1)):(1) Papp=dQ/dt×1/A×1/C0 where dQ/dt is the permeability rate (mmol/s); A is the membrane area (cm^2); and C0 is the initial concentration of peptide solution in the donor chamber (mM). […]
# A standard curve was prepared with a synthetic peptide diluted in HBSS, and the peptide concentrations were 0–3.9 μM. The curve was analyzed as indicated above for the BL samples. […]
# Caco-2 cell monolayers [3] = experiment: Effects of transport pathway inhibitors on peptide transport in Caco-2 cell monolayers; assay type: in vitro ADME, human; conditions: Caco-2 AP→BL, 2 mM in HBSS pH 7.4, 120 min, LC-MS
# Description: Prior to transport experiments, Caco-2 cell monolayers were gently rinsed with HBSS, and then incubated for 30 min at 37 °C in 5% CO2. Afterwards, HBSS was drawn from both the AP side and BL side of all wells. HBSS (0.1 mL) with 2 mM WGAPSL was added to the AP side and 0.6 mL of fresh HBSS was added to the BL side. All transwell plates were incubated at 37 °C in 5% CO2 for 30, 60, 90, or 120 min. The transport experiment was done in triplicate for three consecutive days after 21 days, in which the cell model was developed.
# Four inhibitors, including transport inhibitors cytochalasin D (a cell tight junction disruptor, 0.5 μg/mL), wortmannin (transcytosis inhibitor, 500 nM), sodium azide (ATP synthesis inhibitor, 10 mM), and Gly-Pro (transport peptide PepT 1 substrate, 10 mM) were applied to identify the transport routes of the peptide. After 120 min, the concentration of the peptide was determined in the basolateral samples [6].
# Analysis of AP and BL samples gathered after the transport of WGAPSL across Caco-2 cells was performed by Agilent LC-MS (6420 Triple Quad, […]). A symmetrical 4.6 × 250 mm C18 column (GL Sciences, Tokyo, Japan) was used for fragments separations. The analysis was done in the MS Scan mode, and the injection volume was set to 20 μL. The peptide was applied in formic acid as an organic regulator to improve the MS signal of the peptide. Solvents A and B were formic acid/milli Q water (0.1:100, v/v) and formic acid/acetonitrile (0.1:100, v/v). For WGAPSL, the sample elution was run at 0.7 mL/min using a linear gradient of solvent B in A from 18% to 43% for 25 min, 43–100% for 5 min, and 100–18% for 10 min to equalize the column. The accumulation and ionization conditions in the ion trap were optimized automatically, and the target mass of the molecular ion was as follows: m/z 630.633 (WGAPSL).
# CCK-8 cytotoxicity assay = assay type: cell-based, human; conditions: human, Caco-2, 10 mM peptide in DMEM, 2 h incubation then 4 h with CCK-8, 37 °C, absorbance, three replications, read-out: Survival rate of Caco-2 cells
# Description: (§1) The effects of the WGAPSL peptide on Caco-2 cell proliferation were observed using the CCK-8 cell counting kit (Dojindo, Japan). The WST-8 (2-(2-methoxy-4-nitrophenyl)-3-(4-nitrophenyl)-5-(2,4-disulfophenyl)-2H-tetrazolium, monosodium salt) reagent was used based on the kit specifications. Caco-2 cells were plated in 96-well culture plates in a final volume of 100 μL/well of culture medium (1 × 10^5 cells/well) at 37 °C in 5% CO2 for 24 h and incubated with 1–10 mM WGAPSL (diluted in DMEM) or DMEM only for 2 h, followed by incubation with 10 μL CCK-8 and incubation for another 4 h and then the absorbance was measured.
# Caco-2 cells = experiment: CCK-8 cytotoxicity assay; assay type: cell-based, human; conditions: 2 h incubation then 4 h with CCK-8, 37 °C, absorbance, three replications
# Description: as §1
# pepsin and trypsin = experiment: Simulated gastrointestinal digestion (two-stage pepsin then trypsin hydrolysis); assay type: in vitro ADME; conditions: 1 mg/mL in HBSS, pepsin pH 2.0, E/S 1:50 w/w, 37 °C, 90 min, then trypsin pH 7.5, E/S 1:50 w/w, 4 h, LC-MS, mean ± spread
# Description: Simulated gastrointestinal digestion was done based on the method of Quirós et al.. Synthetic peptide (1 mg/mL) was prepared in HBSS and acidified with HCl to reach pH 2.0, then hydrolyzed with 1:10,000 pepsin at an enzyme/substrate ratio of 1:50 (w/w), and incubated in constant temperature water oscillation at 37 °C for 90 min with a low shaking rate (120 rpm). After gastric digestion, samples were adjusted to pH 7.5 with saturated NaHCO3 and 1:250 trypsin was added at an enzyme/substrate ratio of 1:50 (w/w), and incubated in constant temperature water oscillation at 37 °C for 4 h with a low shaking rate (120 rpm). Reactions were stopped in a boiling water bath for 10 min. Digested samples were centrifuged (3K15, SIGMA Laborzentrifugen GmbH, Germany) at 30,000× g at 4 °C for 20 min and diluted 100 times to analyze peptide concentrations using liquid chromatography-tandem mass spectrometry (LC-MS, 1200, Agilent, CA, USA).
# Caco-2 cell monolayers [4] = conditions: cited from earlier work; remark: listed apart in the source
# Description: The apparent permeability coefficient (Papp) value reflects the velocity of passage through the epithelium.
# [5] = Caco-2 cell monolayers in HBSS, apical (AP) and basolateral (BL) sides; conditions: human, 37 °C, up to 120 min
# [6] = tested on: 1:10,000 pepsin, then 1:250 trypsin; experiment: simulated gastrointestinal digestion: pepsin in HBSS at pH 2.0, then trypsin at pH 7.5; conditions: 37 °C, up to 90 min (pepsin) then 4 h (trypsin)
substance,measurement,setting,value
Gln-Ile-Gly-Leu-Phe [QIGLF],Change of Papp value after cytochalasin D treatment,Caco-2 cell monolayers [1],significantly (p < 0.05) increased
"WGAPSL [WGAPSL, Trp-Gly-Ala-Pro-Ser-Leu]",P-glycoprotein substrate status,Caco-2 cell monolayers [2],not a substrate of P-glycoprotein
same,Effect of wortmannin on peptide concentration (BL side),Caco-2 cell monolayers [3]; 30 min preincubation with 500 nM wortmannin (transcytosis inhibitor),did not significantly (p > 0.05) affect
same,Effect of Gly-Pro on peptide transport,Caco-2 cell monolayers [3]; 30 min preincubation with 10 mM Gly-Pro (PepT1 substrate),not significantly (p > 0.05) decreased
same,Effect of sodium azide on peptide transport,Caco-2 cell monolayers [3]; 30 min preincubation with 10 mM sodium azide (ATP synthesis inhibitor),A similar result
same,"Increase of peptide concentration in the BL side vs control, with cytochalasin D","Caco-2 cell monolayers [3]; 30 min preincubation with cytochalasin D 0.5 μg/mL (tight junction disruptor), p < 0.05",66%
same,"viability at 2 h, 10000 µM",CCK-8 cytotoxicity assay,27%
same,Cytotoxicity for Caco-2 cells,Caco-2 cells; 1 mM peptide in DMEM,non-toxic
same,Cytotoxicity for Caco-2 cells,Caco-2 cells; 2 mM peptide in DMEM,non-toxic
same,Stability (intact peptide) after simulated gastric and intestinal digestion,pepsin and trypsin,83.9% ± 1.98
Val-Pro-Pro [VPP],Papp value,Caco-2 cell monolayers [4],0.005 ×10⁻⁶ cm/s
WGAPSL,cleaved bond,[5],"W-G, 120 min; also recorded: P-S, 120 min; also recorded: S-L, 120 min"
same,fragment found,[6],APSL and PSL and GAPSL and WGA and WG
